Measurements taken from US8999994B2, “Derivatives of propargylamine having neuroprotective capacity for the treatment of Alzheimer's and Parkinson's diseases” (Consejo Superior de Investigaciones Cientificas, priority 2010, dated 2015).
Read-outs that look alike come from different tables or passages of the source.

Assays:
Assay type in all cases: biochemical
[1] = target: AChE (electric eel) (Electrophorus electricus (Electric eel) (Gymnotus electricus), UniProt O42275); conditions: acetylthiocholine iodide […], 10 min incubation, mean ± SEM, read-out: IC50 (μM) ChE EeAChE
[2] = target: MAO-A (Rattus norvegicus (Rat), UniProt P21396); assay: Inhibition of monoamine oxidase A (Fowler and Tipton radiometric method, rat liver mitochondria)
[3] = target: MAO-B (Rattus norvegicus (Rat), UniProt P19643); assay: Inhibition of monoamine oxidase B (Fowler and Tipton radiometric method, rat liver mitochondria)
[4] = rat liver mitochondria, [14C]-5-HT 100 μM substrate, 30 min incubation, mean ± SEM, read-out: IC50 (μM) MAO MAO-A
[5] = rat liver mitochondria, [14C]-phenylethylamine 20 μM substrate, 30 min incubation, mean ± SEM

MAO-B, sequence (P19643 whole entry): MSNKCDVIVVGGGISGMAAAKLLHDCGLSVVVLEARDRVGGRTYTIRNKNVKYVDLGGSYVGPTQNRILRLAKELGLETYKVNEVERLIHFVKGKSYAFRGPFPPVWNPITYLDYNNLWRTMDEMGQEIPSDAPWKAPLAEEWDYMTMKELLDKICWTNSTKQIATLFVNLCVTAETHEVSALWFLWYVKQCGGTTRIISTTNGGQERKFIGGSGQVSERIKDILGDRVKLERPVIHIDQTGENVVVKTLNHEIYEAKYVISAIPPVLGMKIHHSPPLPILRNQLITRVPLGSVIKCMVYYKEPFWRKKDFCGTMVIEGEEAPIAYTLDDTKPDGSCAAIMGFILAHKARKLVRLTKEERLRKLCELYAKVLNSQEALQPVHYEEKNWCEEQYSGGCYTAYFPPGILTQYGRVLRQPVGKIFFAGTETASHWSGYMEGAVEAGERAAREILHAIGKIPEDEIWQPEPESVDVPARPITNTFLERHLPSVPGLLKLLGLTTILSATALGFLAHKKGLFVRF
AChE (electric eel), sequence (O42275 whole entry, looked up): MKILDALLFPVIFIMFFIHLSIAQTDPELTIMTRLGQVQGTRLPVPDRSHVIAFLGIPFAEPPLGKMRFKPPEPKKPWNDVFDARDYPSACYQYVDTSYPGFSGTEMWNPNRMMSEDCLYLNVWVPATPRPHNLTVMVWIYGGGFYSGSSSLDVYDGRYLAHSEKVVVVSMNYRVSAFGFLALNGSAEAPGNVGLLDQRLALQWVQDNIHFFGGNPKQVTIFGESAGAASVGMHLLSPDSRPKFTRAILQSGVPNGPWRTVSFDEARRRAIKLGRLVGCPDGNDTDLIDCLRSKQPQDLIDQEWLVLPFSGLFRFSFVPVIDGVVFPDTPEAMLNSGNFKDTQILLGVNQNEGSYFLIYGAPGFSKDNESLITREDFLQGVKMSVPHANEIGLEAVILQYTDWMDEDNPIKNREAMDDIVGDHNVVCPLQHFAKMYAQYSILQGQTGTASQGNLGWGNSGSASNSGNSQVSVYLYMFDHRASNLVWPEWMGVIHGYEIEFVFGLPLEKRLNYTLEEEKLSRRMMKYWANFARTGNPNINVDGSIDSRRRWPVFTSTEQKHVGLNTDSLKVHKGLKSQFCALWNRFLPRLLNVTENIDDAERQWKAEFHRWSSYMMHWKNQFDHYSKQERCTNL
MAO-A, sequence (P21396 whole entry): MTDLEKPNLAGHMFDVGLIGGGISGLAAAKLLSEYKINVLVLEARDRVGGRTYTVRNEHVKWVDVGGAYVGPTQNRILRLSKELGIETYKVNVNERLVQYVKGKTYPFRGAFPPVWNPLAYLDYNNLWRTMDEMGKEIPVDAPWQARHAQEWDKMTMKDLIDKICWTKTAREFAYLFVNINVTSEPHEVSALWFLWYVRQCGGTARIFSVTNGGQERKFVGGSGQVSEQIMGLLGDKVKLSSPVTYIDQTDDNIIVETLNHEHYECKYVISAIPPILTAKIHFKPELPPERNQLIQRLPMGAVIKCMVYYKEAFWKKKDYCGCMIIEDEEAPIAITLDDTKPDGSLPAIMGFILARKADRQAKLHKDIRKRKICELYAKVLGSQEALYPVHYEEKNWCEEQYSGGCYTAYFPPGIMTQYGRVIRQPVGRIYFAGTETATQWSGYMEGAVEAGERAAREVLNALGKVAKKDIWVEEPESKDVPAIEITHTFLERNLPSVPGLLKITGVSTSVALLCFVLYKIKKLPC

SMILES	IC50 [1] [µM]	IC50 [2, 4] [µM]	IC50 [3] [µM]	IC50 [3, 5] [µM]	IC50 [2] [µM]	IC50 ([2]; read-out: IC50 (μM) MAO MAO-A) [µM]	IC50 (μM) MAO MAO-B [3] [µM]
C#CCN(C)Cc1cc2cc(OCC3CCN(Cc4ccccc4)CC3)ccc2n1C [Compound 4, N-{(5-((1-benzylpiperidin-4-yl)methoxy)-1-methyl-1H-indol-2-yl)methyl}-N-methylprop-2-yn-1-amine]	0.31 ± 0.04	0.0822 ± 0.0032	0.745 ± 0.0199	–	–	–	–
C#CCN(C)Cc1cc2cc(OCCN3CCC(Cc4ccccc4)CC3)ccc2n1C [Compound 1, N-{(5-[2-(4-benzylpiperidin-1-yl)ethoxy)-1-methyl-1H-indol-2-yl]methyl}-N-methylprop-2-yn-1-amine]	> 100	0.143 ± 0.0443	–	1.46 ± 0.499	–	–	–
C#CCN(C)Cc1cc2cc(OCCCCC3CCN(Cc4ccccc4)CC3)ccc2n1C [Compound 7, N-((5-[4-(1-benzylpiperidin-4-yl)butoxy)-1-methyl-1H-indol-2-yl)methyl)-N-methylprop-2-yn-1-amine]	0.26 ± 0.07	0.0105 ± 0.0044	–	2.77 ± 0.116	–	–	–
C#CCN(C)Cc1cc2cc(OCCCN3CCN(Cc4ccccc4)CC3)ccc2n1C [Compound 3, N-{(5-[3-(4-benzylpiperazin-1-yl)propoxy)-1-methyl-1H-indol-2-yl]methyl}-N-methylprop-2-yn-1-amine]	> 100	–	–	1.64 ± 0.707	0.0305 ± 0.0135	–	–
C#CCN(C)Cc1cc2cc(OCCCN3CCC(Cc4ccccc4)CC3)ccc2n1C [Compound 2, N-{(5-[3-(4-benzylpiperidin-1-yl)propoxy)-1-methyl-1H-indol-2-yl]methyl}-N-methylprop-2-yn-1-amine]	18.1 ± 0.4	–	–	11.3 ± 2.38	–	0.0654 ± 0.0174	–
C#CCN(C)Cc1cc2cc(OCCCC3CCN(Cc4ccccc4)CC3)ccc2n1C [Compound 6, N-((5-[3-(1-benzylpiperidin-4-yl)propoxy)-1-methyl-1H-indol-2-yl)methyl)-N-methylprop-2-yn-1-amine]	–	0.0052 ± 0.0011	–	0.0431 ± 0.0079	–	–	–
C#CCN(C)Cc1cc2cc(OCCC3CCN(Cc4ccccc4)CC3)ccc2n1C [Compound 5, N-((5-(2-(1-benzylpiperidin-4-yl)ethoxy)-1-methyl-1H-indol-2-yl)methyl)-N-methylprop-2-yn-1-amine]	0.42 ± 0.04	0.0067 ± 0.0018	0.13 ± 0.0414	–	–	–	–
Nc1c2c(nc3ccccc13)CCCC2 [Tacrine, tacrine, reference compound]	–	–	–	–	–	–	499.6 ± 12.8
